Reference: US7772192B2, “Compositions and methods for treatment of disease with acetylated disaccharides” (The Regents of the University of California, priority 2003, dated 2010)

What was measured:
[1] = tested on: cell-surface sLe^X of LS180 cells; assay: Flow cytometry of cell-surface sLe^X (CSLEX-1); format: cell-based, human; details: 50 μM
Description: Peracetylated forms of GlcNAcβ1,3Galβ-O-naphthalenemethanol (AcGnG-NM) and Galβ1,3Galβ-O-naphthalenemethanol (AcGG-NM) were prepared as described. Sarkar, et al., Carbohydr. Res., 329, 287-300, 2000. The compounds were dissolved in dimethylsulfoxide (DMSO) and added to growth medium to achieve the concentrations indicated in the figures. The supplemented medium was then exchanged for the medium in established cultures of cells in order to avoid lysis caused by adding concentrated DMSO directly to the plates. The final concentration of DMSO was adjusted to ≦0.5% (v/v). After the specified number of days, the cells were harvested with 2 mM EDTA in PBS (20 min) and used for the following experiments.
Cell Sorting. To detect the presence or absence of the relevant carbohydrate determinants, cells were stained with CSLEX-1 (anti-sLe^X, 5 μg/mL, Becton-Dickinson) or CA-19-9 ([…], 14.5 μg/mL, Chemicon) and analyzed by flow cytometry (FACScan Becton-Dickinson, Franklin Lakes, N.J.). […]
Treatment of LS180 cells with AcGnG-NM reduces cell-surface sLe^X, but not sLe^a. […] LS180 cells were grown in the presence of 50 μM AcGnG-NM, harvested with EDTA, stained with monoclonal antibodies (CSLEX-1, anti-sLe^X and CA19-9, anti-sLe^a) as indicated and analyzed by flow cytometry (Materials and Methods). […]

LLC cells [2] = assay: In vitro characterization of LLC cells (CSLEX-1 binding, lectin and PsIg flow cytometry); format: cell-based
Description: LLC cells were treated in culture for 4 days in the absence or presence of 50 μM peracetylated GlcNAcβ3Gal-NM. To quantitate sLex on the surface of LLC cells monoclonal antibody, CSLEX-1 binding to the cells was measured as described (Brown et al, J. Biol. Chem. 278: 23352-23359, 2003). […] Flow cytometry measures cell surface carbohydrate structures (Koenig et al, 1998). AAL and MAH are plant lectins. […] LLC cells have higher sialyltransferase activity than fucosyltransferase activity.

LLC cells [3] = assay: Spontaneous tumor metastasis of LLC cells, compound by osmotic pump; format: in vivo, mice; details: ~1 mg/day/mouse, 4 weeks
Description: Osmotic pumps (ref 4) containing vehicle or peracetylated GlcNAcβ3Gal-NM were surgically implanted in a dorsal skin fold of Es1(e) mice and LLC cells (5×10^5) were implanted subcutaneously in the hindquarter. The dose rate of compound was ˜1 mg/day/mouse. Panel A. To detect tumor cells in the lungs, after 4 weeks each animal was injected intraperitoneally with 1 mg of BrdU (bromodeoxyuridine (BrdU), which is taken up by dividing cells—tumor cells, and therefore indicates the quantity of tumor cells in the lungs when cells from the lungs are stained with anti-BrdU antibodies). The animals were sacrificed, the heart was perfused with PBS and the lungs removed. Each lung was incubated with collagenase (10 mg/ml, 1 h, 37° C.), syringed through an 18-gauge needle and filtered through a […] nylon filter, and cells were fixed (70% ethanol, 1×10^6 cells/ml). The relative number of BrdU-labeled cells in the lungs was determined by flow cytometry (FACS) using a mouse anti-BrdU-FITC antibody. Control experiments used mouse IgG-FITC antibody. Statistics were calculated by one-way ANOVA tests comparing three groups of 4-7 animals. […] Statistics were calculated by student t-test comparing two groups of 4-7 animals.

LLC cells [4] = assay: Experimental metastasis of pretreated LLC cells; format: in vivo, mice; details: cells treated 4 days, Es1(e) mice, 3 weeks
Description: (A) LLC cells were treated in culture for 4 days with peracetylated GlcNAcβ3Gal-NM or vehicle (DMSO/propylene glycol, v/v 1:1). Single-cell suspensions (2×10^5) were injected in the tail-veins of Es1(e) mice. After 3 weeks, the mice were sacrificed and the number of tumors present on the surface of the lungs was determined by visual inspection.
LLC cells were treated in culture for 5 days with 4-deoxy AcGnG-NM, AcGnG-NM or vehicle (DMSO:propylene glycol) and then a single-cell suspension (2×10^5 cells) was injected in the tail vein of mice. After 3 weeks, the number of tumors present on the surface of the lungs was determined.

Question: What does the source list for “GlcNAcβ1,3Galβ-O-naphthalenemethanol [AcGnG-NM]”?
Answer: cell-surface sLe^X [1]: significant inhibition; sLex expression (CSLEX-1 binding) (LLC cells [2]; 50 μM, 4 days): reduces sLex expression; AAL reactivity (fucose) (LLC cells [2]; flow cytometry): reduces AAL reactivity; sialylation (MAH) (LLC cells [2]; flow cytometry): no effect on sialylation; spontaneous tumor metastasis (BrdU-labeled cells in the lungs) (LLC cells [3]): Inhibits Spontaneous Tumor Metastasis; tumors on the surface of the lungs (LLC cells [4]): significantly fewer tumor foci
